Data published in patent US20260258032A1, “TYROSINE KINASE 2 INHIBITORS AND USES THEREOF” (BIOGEN MA INC., priority 2022, published 2026).
Where a name gives a salt, the structure may show the parent alone.

Experiments:
JH2 domain of human Tyk2 = molecular target: T1, JH2 domain of human Tyk2 (Homo sapiens, UniProt P29597); test: JH2 biochemical assay (TR-FRET probe displacement); type: binding
T1 construct: 10×His-tagged TYK2 JH2 domain (amino acid 575-876)
Method in brief: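 10×His-tagged human TYK2 JH2 (aa 575-876, 2 nM) incubated 60 min with 2 nM fluorescent probe, 0.1 nM Tb anti-His antibody and compound (10-point 3-fold series from […] top). TR-FRET 520/495 nm ratio, falling with probe displacement, normalized and fitted to a 4-parameter logistic for IC50.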

[1] = tested on: Tyk2 kinase activity on STAT4; test: pSTAT4 cell assay (MSD, NK92 cells); type: cell-based; conditions: compounds 1 hr
Procedure: The inhibitory potency of compounds of the disclosure against the Tyk2 kinase activity on STAT4 was evaluated using an MSD-platform plate-based assay format. NK92 cells natively expressing STAT4 and Tyk2 were serum-starved to reduce background phosphorylation levels, then cells were treated compounds for 1 hr with a 10-point four-fold dilution series starting at 10 μM. Cells were then stimulated with 30 ng/mL IL2 for 15 minutes. Cells were lysed and […] levels were quantitated using an MSD plate-based assay with anti-STAT4 antibodies. The data were normalized and the percent activity versus log concentration of compound were fitted with a 4-parameter logistic model to generate to generate IC50 curves.

[2] = TR-FRET probe displacement, JH2 domain of human Tyk2

T1 sequence (P29597 575-876): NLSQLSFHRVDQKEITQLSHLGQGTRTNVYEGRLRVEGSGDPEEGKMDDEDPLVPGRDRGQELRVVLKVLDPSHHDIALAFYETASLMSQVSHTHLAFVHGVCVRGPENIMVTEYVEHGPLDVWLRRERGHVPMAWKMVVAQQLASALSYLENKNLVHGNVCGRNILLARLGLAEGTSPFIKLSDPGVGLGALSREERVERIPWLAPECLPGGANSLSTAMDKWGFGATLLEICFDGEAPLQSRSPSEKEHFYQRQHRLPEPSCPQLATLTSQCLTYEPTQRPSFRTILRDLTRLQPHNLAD

Which IC50 (JH2 domain of human Tyk2; [2]) does the source give for `CC(=O)Nc1cc2c(cn1)C1(CC1)CN2c1cc(C)cc(N2CCC(C)(O)C2)n1` (centres unmarked) [Example 405, N-(1′-(6-(3-hydroxy-3-methylpyrrolidin-1-yl)-4-methylpyridin-2-yl)-1′,2′-dihydrospiro[cyclopropane-1,3′-pyrrolo[3,2-c]pyridin]-6′-yl)acetamide trifluoroacetate] here?
The IC50 was 100 to 1000 nM.

And the IC50 ([1]; then stimulated 15 minutes)?
The IC50 was no less than 1000 nM.

`COC1CC(COc2nc(C)cc(N3CC4(CC4)c4cnc(NC(C)=O)cc43)n2)C1` (centres unmarked) [Example 372, N-(1′-(2-((3-methoxycyclobutyl)methoxy)-6-methylpyrimidin-4-yl)-1′,2′-dihydrospiro[cyclopropane-1,3′-pyrrolo[3,2-c]pyridin]-6′-yl)acetamide] was tested. Which IC50 (JH2 domain of human Tyk2; [2]) did it give?
Its IC50 is 100 to 1000 nM.

And the IC50 ([1]; then stimulated 15 minutes)?
The IC50 was no less than 1000 nM.

With `CC(=O)Nc1cc2c(cn1)C1(CC1)CN2c1cc(NCC2(F)CC2)nc(C(C)(F)F)n1` [Example 160, N-(1′-(2-(1,1-difluoroethyl)-6-(((1-fluorocyclopropyl)methyl)amino)pyrimidin-4-yl)-1′,2′-dihydrospiro[cyclopropane-1,3′-pyrrolo[3,2-c]pyridin]-6′-yl)acetamide trifluoroacetate] as the compound, how does the IC50 (JH2 domain of human Tyk2; JH2 biochemical assay) read?
Its IC50 is no more than 10 nM.

What about the IC50 ([1]; stimulated 15 minutes) of the same compound?
Its IC50 is 10 to 100 nM.

Which IC50 (JH2 domain of human Tyk2; JH2 biochemical assay) does the source give for `COC(C)(C)COc1cc(C)cc(N2CC3(CC3)c3cnc(NC(C)=O)cc32)n1` [Example 336, N-(1′-(6-(2-methoxy-2-methylpropoxy)-4-methylpyridin-2-yl)-1′,2′-dihydrospiro[cyclopropane-1,3′-pyrrolo[3,2-c]pyridin]-6′-yl)acetamide trifluoroacetate] here?
The IC50 was 100 to 1000 nM.

What about the IC50 ([1]; stimulated 15 minutes) of the same compound?
Its IC50 is no less than 1000 nM.

With `CC(=O)Nc1cc2c(cn1)C1(CC1)CN2c1cc(C)nc(N2CC[C@H](C#N)C2)n1` [Example 408, (S)-N-(1′-(2-(3-cyanopyrrolidin-1-yl)-6-methylpyrimidin-4-yl)-1′,2′-dihydrospiro[cyclopropane-1,3′-pyrrolo[3,2-c]pyridin]-6′-yl)acetamide] as the compound, how does the IC50 (JH2 domain of human Tyk2; [2]) read?
Its IC50 is 10 to 100 nM.

What about the IC50 ([1]; then stimulated 15 minutes) of the same compound?
The IC50 was 100 to 1000 nM.

Which results are given for `CC(=O)Nc1cc2c(cn1)C1(CC1)CN2c1cc(C)nc(-c2cnn(C)c2)n1` [Example 245, N-(1′-(6-methyl-2-(1-methyl-1H-pyrazol-4-yl)pyrimidin-4-yl)-1′,2′-dihydrospiro[cyclopropane-1,3′-pyrrolo[3,2-c]pyridin]-6′-yl)acetamide trifluoroacetate]?
IC50 (JH2 domain of human Tyk2; JH2 biochemical assay): 10 to 100 nM; IC50 ([1]; stimulated 15 minutes): 100 to 1000 nM

For `CC(=O)Nc1cc2c(cn1)C1(CC1)CN2c1cc(-c2cnn(C)c2C(F)F)nc(C(C)(F)F)n1` [Example 385, N-(1′-(2-(1,1-difluoroethyl)-6-(5-(difluoromethyl)-1-methyl-1H-pyrazol-4-yl)pyrimidin-4-yl)-1′,2′-dihydrospiro[cyclopropane-1,3′-pyrrolo[3,2-c]pyridin]-6′-yl)acetamide trifluoroacetate], which IC50 (JH2 domain of human Tyk2; [2]) is on record?
Its IC50 is no more than 10 nM.

And the IC50 ([1]; then stimulated 15 minutes)?
The IC50 was 10 to 100 nM.

Which results are given for `CC(=O)Nc1cc2c(cn1)C1(CC1)CN2c1cc(OC2(C#N)CC2)nc(C(C)(F)F)n1` [Example 144, N-(1′-(6-(1-cyanocyclopropoxy)-2-(1,1-difluoroethyl)pyrimidin-4-yl)-1′,2′-dihydrospiro[cyclopropane-1,3′-pyrrolo[3,2-c]pyridin]-6′-yl)acetamide trifluoroacetate]?
IC50 (JH2 domain of human Tyk2; JH2 biochemical assay): 10 to 100 nM; IC50 ([1]; stimulated 15 minutes): ≥ 1000 nM

Which IC50 (JH2 domain of human Tyk2; JH2 biochemical assay) does the source give for `CC(=O)Nc1cc2c(cn1)C1(CC1)CN2c1cc(NCC(C)F)nc(C(C)(F)F)n1` (centres unmarked) [Example 169, N-(1′-(2-(1,1-difluoroethyl)-6-((2-fluoropropyl)amino)pyrimidin-4-yl)-1′,2′-dihydrospiro[cyclopropane-1,3′-pyrrolo[3,2-c]pyridin]-6′-yl)acetamide trifluoroacetate] here?
The IC50 was no more than 10 nM.

What about the IC50 ([1]; stimulated 15 minutes) of the same compound?
The IC50 was 10 to 100 nM.

What does the source list for `CC(=O)Nc1cc2c(cn1)C1(CC1)CN2c1cc(C)nc(CO)n1` [Example 126, N-(1′-(2-(hydroxymethyl)-6-methylpyrimidin-4-yl)-1′,2′-dihydrospiro[cyclopropane-1,3′-pyrrolo[3,2-c]pyridin]-6′-yl)acetamide]?
IC50 (JH2 domain of human Tyk2; JH2 biochemical assay): 10 to 100 nM; IC50 ([1]; stimulated 15 minutes): ≥ 1000 nM

For `CCc1cc(N2CC3(CC3)c3cnc(NC(C)=O)cc32)nc(C2CCOC2)n1` (centres unmarked) [Example 321, N-(1′-(6-ethyl-2-(tetrahydrofuran-3-yl)pyrimidin-4-yl)-1′,2′-dihydrospiro[cyclopropane-1,3′-pyrrolo[3,2-c]pyridin]-6′-yl)acetamide trifluoroacetate], which IC50 (JH2 domain of human Tyk2; JH2 biochemical assay) is on record?
The IC50 was no more than 10 nM.

What about the IC50 ([1]; stimulated 15 minutes) of the same compound?
The IC50 was 10 to 100 nM.

With `CCc1cc(N2CC3(CC3)c3cnc(NC(=O)OC)cc32)nc(C(C)(F)F)n1` [Example 311, Methyl (1′-(2-(1,1-difluoroethyl)-6-ethylpyrimidin-4-yl)-1′,2′-dihydrospiro[cyclopropane-1,3′-pyrrolo[3,2-c]pyridin]-6′-yl)carbamate trifluoroacetate] as the compound, how does the IC50 (JH2 domain of human Tyk2; JH2 biochemical assay) read?
Its IC50 is no more than 10 nM.

What about the IC50 ([1]; stimulated 15 minutes) of the same compound?
Its IC50 is 10 to 100 nM.

What does the source list for `CCc1cc(N2CC3(CC3)c3cnc(NC(N)=O)cc32)nc(C(C)(F)F)n1` [Example 309, 1-(1′-(2-(1,1-difluoroethyl)-6-ethylpyrimidin-4-yl)-1′,2′-dihydrospiro[cyclopropane-1,3′-pyrrolo[3,2-c]pyridin]-6′-yl)urea]?
IC50 (JH2 domain of human Tyk2; JH2 biochemical assay): ≤ 10 nM; IC50 ([1]; stimulated 15 minutes): ≤ 10 nM

For `COCC(F)(F)c1nccc(N2CC3(CC3)c3cnc(NC(C)=O)cc32)n1` [Example 323, N-(1′-(2-(1,1-difluoro-2-methoxyethyl)pyrimidin-4-yl)-1′,2′-dihydrospiro[cyclopropane-1,3′-pyrrolo[3,2-c]pyridin]-6′-yl)acetamide], which IC50 (JH2 domain of human Tyk2; JH2 biochemical assay) is on record?
The IC50 was 100 to 1000 nM.

What about the IC50 ([1]; stimulated 15 minutes) of the same compound?
The IC50 was 100 to 1000 nM.

For `CC(=O)Nc1cc2c(cn1)C1(CC1)CN2c1cc(C)nc(C23COC(C2)C3)n1` [Example 320, N-(1′-(2-(2-oxabicyclo[2.1.1]hexan-4-yl)-6-methylpyrimidin-4-yl)-1′,2′-dihydrospiro[cyclopropane-1,3′-pyrrolo[3,2-c]pyridin]-6′-yl)acetamide], which IC50 (JH2 domain of human Tyk2; JH2 biochemical assay) is on record?
Its IC50 is no more than 10 nM.

And the IC50 ([1]; stimulated 15 minutes)?
Its IC50 is 10 to 100 nM.

What does the source list for `CC(=O)Nc1cc2c(cn1)C1(CC1)CN2c1cc(C)nc(-c2cnn(C(C)C)c2)n1` [Example 249, N-(1′-(2-(1-isopropyl-1H-pyrazol-4-yl)-6-methylpyrimidin-4-yl)-1′,2′-dihydrospiro[cyclopropane-1,3′-pyrrolo[3,2-c]pyridin]-6′-yl)acetamide]?
IC50 (JH2 domain of human Tyk2; JH2 biochemical assay): 10 to 100 nM; IC50 ([1]; stimulated 15 minutes): ≥ 1000 nM

What does the source list for `CC(=O)Nc1cc2c(cn1)C1(CC1)CN2c1cc(C)nc(S(C)(=O)=O)n1` [Example 136, N-(1′-(6-methyl-2-(methylsulfonyl)pyrimidin-4-yl)-1′,2′-dihydrospiro[cyclopropane-1,3′-pyrrolo[3,2-c]pyridin]-6′-yl)acetamide]?
IC50 (JH2 domain of human Tyk2; JH2 biochemical assay): ≤ 10 nM; IC50 ([1]; stimulated 15 minutes): 10 to 100 nM

With `CC(=O)Nc1cc2c(cn1)C1(CC1)CN2c1cc(C)nc(N2CCC(C)(C#N)C2)n1` (centres unmarked) [Example 409, N-(1′-(2-(3-cyano-3-methylpyrrolidin-1-yl)-6-methylpyrimidin-4-yl)-1′,2′-dihydrospiro[cyclopropane-1,3′-pyrrolo[3,2-c]pyridin]-6′-yl)acetamide] as the compound, how does the IC50 (JH2 domain of human Tyk2; [2]) read?
Its IC50 is 10 to 100 nM.

And the IC50 ([1]; then stimulated 15 minutes)?
Its IC50 is no less than 1000 nM.

Which IC50 (JH2 domain of human Tyk2; JH2 biochemical assay) does the source give for `CC(=O)Nc1cc2c(cn1)C1(CC1)CN2c1cc(C)nc(C(F)(F)F)n1` [Example 61, N-(1′-(6-methyl-2-(trifluoromethyl)pyrimidin-4-yl)-1′,2′-dihydrospiro[cyclopropane-1,3′-pyrrolo[3,2-c]pyridin]-6′-yl)acetamide] here?
Its IC50 is 10 to 100 nM.

What about the IC50 ([1]; stimulated 15 minutes) of the same compound?
Its IC50 is no less than 1000 nM.

`CC(=O)Nc1cc2c(cn1)C1(CC1)CN2c1cc(C)nc(N2CCOCC2)n1` [Example 213, N-(1′-(6-methyl-2-morpholinopyrimidin-4-yl)-1′,2′-dihydrospiro[cyclopropane-1,3′-pyrrolo[3,2-c]pyridin]-6′-yl)acetamide] was tested. Which IC50 (JH2 domain of human Tyk2; JH2 biochemical assay) did it give?
Its IC50 is 10 to 100 nM.

And the IC50 ([1]; stimulated 15 minutes)?
The IC50 was no less than 1000 nM.

How did the IC50 (JH2 domain of human Tyk2; JH2 biochemical assay) turn out when `CC(=O)Nc1cc2c(cn1)C1(CC1)CN2c1cc(C)cc(N(C)C)n1` [Example 190, N-(1′-(6-(dimethylamino)-4-methylpyridin-2-yl)-1′,2′-dihydrospiro[cyclopropane-1,3′-pyrrolo[3,2-c]pyridin]-6′-yl)acetamide] was run?
Its IC50 is 10 to 100 nM.

What about the IC50 ([1]; stimulated 15 minutes) of the same compound?
The IC50 was no less than 1000 nM.

What does the source list for `CC(=O)Nc1cc2c(cn1)C1(CC1)CN2c1cc(C)cc(N2CCC(C)(C#N)C2)n1` (centres unmarked) [Example 404, N-(1′-(6-(3-cyano-3-methylpyrrolidin-1-yl)-4-methylpyridin-2-yl)-1′,2′-dihydrospiro[cyclopropane-1,3′-pyrrolo[3,2-c]pyridin]-6′-yl)acetamide]?
IC50 (JH2 domain of human Tyk2; [2]): 10 to 100 nM; IC50 ([1]; then stimulated 15 minutes): ≥ 1000 nM

With `CC(=O)Nc1cc2c(cn1)C1(CC1)CN2c1cc(C)cc(OC2CC(F)C2)n1` (centres unmarked) [Example 346, N-(1′-(6-(3-fluorocyclobutoxy)-4-methylpyridin-2-yl)-1′,2′-dihydrospiro[cyclopropane-1,3′-pyrrolo[3,2-c]pyridin]-6′-yl)acetamide trifluoroacetate] as the compound, how does the IC50 (JH2 domain of human Tyk2; JH2 biochemical assay) read?
The IC50 was 100 to 1000 nM.

What about the IC50 ([1]; stimulated 15 minutes) of the same compound?
Its IC50 is no less than 1000 nM.

Which IC50 (JH2 domain of human Tyk2; [2]) does the source give for `CC(=O)Nc1cc2c(cn1)C1(CC1)CN2c1cc(C)nc(OC2CC(F)C2)n1` (centres unmarked) [Example 377, N-(1′-(2-(3-fluorocyclobutoxy)-6-methylpyrimidin-4-yl)-1′,2′-dihydrospiro[cyclopropane-1,3′-pyrrolo[3,2-c]pyridin]-6′-yl)acetamide] here?
Its IC50 is 10 to 100 nM.

And the IC50 ([1]; then stimulated 15 minutes)?
The IC50 was no less than 1000 nM.

Which results are given for `CC(=O)Nc1cc2c(cn1)C1(CC1)CN2c1cc(C)cc(C(F)(F)CF)n1` [Example 316, N-(1′-(4-methyl-6-(1,1,2-trifluoroethyl)pyridin-2-yl)-1′,2′-dihydrospiro[cyclopropane-1,3′-pyrrolo[3,2-c]pyridin]-6′-yl)acetamide trifluoroacetate]?
IC50 (JH2 domain of human Tyk2; JH2 biochemical assay): ≤ 10 nM; IC50 ([1]; stimulated 15 minutes): 10 to 100 nM
